Experimental data reported in US20230340101A1, “METHODS FOR TREATING OR PREVENTING ALLERGIC ASTHMA BY ADMINISTERING AN IL-33 ANTAGONIST AND/OR AN IL-4R ANTAGONIST” (SANOFI BIOTECHNOLOGY, priority 2019, published 2023).
“Also recorded” adds a separate entry of the source.

Key:
[1] = tested on: BAC-induced inflammatory gene expression signatures in sputum; experiment: Bronchial allergen challenge (BAC) with HDM in patients with mild allergic asthma: gene expression signatures (mRNA) in induced sputum; assay type: in vivo, human; conditions: for eosinophil gene signature scores: FIG. 14, post bronchial allergen challenge, across treatment arms; for allergen-induced eosinophilic signature and broader type 2 inflammatory signature, including CCL26, CCL17, and SIGLEC8: monotherapy, REGN3500 IV 10 mg/kg single dose, dupilumab SC 600 mg day 1, 300 mg day 15, sputum after BAC
Method: Bronchial allergen challenge involves patient inhalation of allergen that results in a biphasic airway response, which is characterized by an early (30 minutes to 2 hours post-allergen challenge) and a late (approximately 3 to 8 hours post-allergen challenge) decline in forced expiratory volume over 1 second (FEV1).
Enrolled patients undergo BAC during the screening period, and at 4 and 8 weeks after administration of the first doses of study drug(s). The effects of the study drugs on BAC-induced lung inflammation are assessed via measurements of sputum molecular signatures (mRNAs and proteins). The sputum molecular signatures are assessed before BAC (baseline) and after BAC (post-BAC) at screening and at weeks 4 and 8 after treatment initiation (FIG. 1). The BAC-induced difference in the sputum signatures before and after BAC are evaluated at screening (screening change) and at weeks 4 and 8 post-treatment (week 4 change and week 8 change) will be observed. Since both REGN3500 and dupilumab display long half-lives, BAC change is evaluated at both week 4 and week 8 in the current study, to monitor the durability of the potential impact of study drug treatment on airway inflammation. The effect of study drug treatment on induced sputum gene signatures is evaluated by the difference between the BAC-induced screening change and the BAC-induced week 4 change (screening to week 4 change) and by the difference between the BAC-induced screening change and the BAC-induced week 8 change (screening to week 8 change).
Part 1 of this study is a randomized, double-blind, placebo-controlled, double-dummy parallel group study in mild persistent allergic asthmatic patients to assess the effect of REGN3500, dupilumab, REGN3500 plus dupilumab combination, or placebo on lung inflammation (as measured by sputum cytokine mRNAs) and measurements of the late phase inflammatory airway response to a BAC using HDM. Patients are randomized to one of the following treatment groups: REGN3500 (IV single dose); dupilumab (SC 2 doses, Q2W); combination REGN3500 (IV single dose) plus dupilumab (SC 2 doses, Q2W), and placebo (IV single dose and SC 2 doses, Q2W).
Because the treatment groups in this study include a first clinical dosing of REGN3500 plus dupilumab combination, Part 1 is performed in 2 phases to address any potential safety issues. The first 8 patients are randomized 1:1:1:1 to receive study drug. On day 1: patients in the REGN3500 group receive REGN3500 IV 10 mg/kg, followed by dupilumab-matching placebo SC, patients in the dupilumab group receive REGN3500-matching placebo IV followed by a loading dose of dupilumab SC 600 mg (2 injections of 300 mg), patients in the REGN3500 plus dupilumab combination will receive REGN3500 10 mg/kg IV, followed by dupilumab SC 600 mg (2 injections of 300 mg), and patients in the placebo group will receive REGN3500-matching placebo IV, followed by 2 injections of dupilumab-matching placebo SC.
On day 15 (week 2), patients assigned to the dupilumab group or the REGN3500 plus dupilumab combination group receive dupilumab SC 300 mg and all other patients receive dupilumab-matching placebo SC.
All enrolled patients return to the clinic on day 24± 2 days and on day 52 ± 2 days to provide a baseline induced sputum sample. If an adequate sputum sample cannot be obtained, patients may return 72 hours later for a second attempt to produce baseline sputum. Pre-BAC sputum collection must occur at least 72 hours prior to the BAC. Seventy-two hours after the baseline induced sputum sample is collected, on day 29 ± 2 days and on day 57 ± 2 days, respectively, patients return to the clinic, and measurements of FEV1, and FeNO are performed prior to undergoing BAC with HDM. Sputum induction is performed 8 hours and 24 hours after inhaled BAC at both the days 29 ± 2 (week 4) and 57 ± 2 days (week 8) visits. […]

[2] = tested on: HDM-driven lung inflammation; experiment: Chronic house dust mite (HDM) model of lung inflammation; assay type: in vivo; conditions: FIG. 5; for pro-inflammatory cytokines and chemokines (lung panel hIL-4, IL-5, IL-1b, TNFα, IFNg, GROa, MCP-1): chronic HDM model; for inflammation in chronic HDM model of lung inflammation (lung eosinophils, lung neutrophils): with and without anti-IL-33 treatment
Text: Data is presented showing levels of lung eosinophils and lung neutrophils in the HDM model with and without anti-IL-33 treatment. A heat map of a lung cytokine gene panel is presented showing levels of hIL-4, IL-5, IL-1b, TNFα, IFNg, GROa, and MCP-1. Alveolar SMA testing data is presented as well.
Treatment with REGN3 500 suppressed pro-inflammatory cytokines and chemokines. […] Other data presented includes a heat map of lung of cytokine panel showing levels of hIL-4, IL-5, IL-1b, TNFα, IFNg, GROa, and MCP-1. Alveolar SMA testing was also performed.

[3] = tested on: blood eosinophils, neutrophils, circulating type 2 inflammatory mediators; experiment: BAC study: blood eosinophils, neutrophils and circulating type 2 inflammatory mediators; assay type: in vivo, human
Method: Circulating Biomarkers: circulating biomarker samples are collected at time points according to Table 1 and Table 2. Biomarker measurements are performed in serum and plasma samples to determine effects on biomarkers of inflammatory diseases pathobiology or relevant physiological and pathogenic processes. The biomarkers studied are ones believed to be relevant to the pathophysiology of diseases, target engagement, mechanism of action of REGN3500 (and/or combination therapy) and possible toxicities. Biomarkers studied in the blood may include but need not be limited to, IL-33, soluble ST2, calcitonin, and MMP12.

Substance	type 2 inflammatory cytokine and chemokine genes induced by BAC (IL-5, IL-13, Eot-3 (CCL26), TARC (CCL17), CCL1, FCER2, SIGLEC8) ([1]; FIG. 9, genes induced at 8 or 24 hours after allergen challenge, sputum)	eosinophil signature genes in sputum (ADARB1, ASB2, CLC, HDC, IL1RL1, PTPN7, SIGLEC8, SYNE1, VSTM1) ([1]; FIG. 11)	neutrophil signature genes ([1]; FIG. 11, sputum)	type 2 inflammatory signature genes in sputum (IL-4, IL-13, CCL26, CCL13, CCL17, CCL11, POSTN, IL-5, IL-9) ([1]; FIG. 12)	eosinophil gene signature scores [1]	decrease of type 2 signature scores ([1]; FIG. 15, compared with the fluticasone treatment arm)	allergic asthma signature genes (BC042385 ... RHOH) ([1]; FIG. 16, at 8 and/or 24 hours post BAC)	top allergic asthma signature genes induced by BAC at 24 hours (ASAP1-IT1 ... CCL17, CCL13, CCL26, SIGLEC8, IL13, IL5, PTGDS, RD3) ([1]; FIG. 17, screening vs treatment)	allergen-induced eosinophilic signature and broader type 2 inflammatory signature, including CCL26, CCL17, and SIGLEC8 [1]	pro-inflammatory cytokines and chemokines (lung panel hIL-4, IL-5, IL-1b, TNFα, IFNg, GROa, MCP-1) ([2]; listed as REGN3 500)	pro-inflammatory cytokines and chemokines (lung panel hIL-4, IL-5, IL-1b, TNFα, IFNg, GROa, MCP-1) ([2]; listed as anti-IL-33)	inflammation in chronic HDM model of lung inflammation (lung eosinophils, lung neutrophils) [2]	inflammation in chronic HDM model of lung inflammation (lung eosinophils, lung neutrophils) ([2]; listed as anti-IL-33)	neutrophils ([3]; in vivo)	other circulating type 2 inflammatory mediators ([3]; in vivo)	blood eosinophils ([3]; pharmacodynamic effect)	genes suppressed by REGN3500 (many of them) ([1]; albeit with different dynamics)
REGN3500: human anti-IL-33 antibody; HCVR/LCVR SEQ ID NOs: 2 and 10, heavy/light chain SEQ ID NOs: 18 and 20	suppressed	suppressed; also recorded: suppression	No anti-IL-33 (REGN3500) treatment-mediated effects were noted; also recorded: did not have an effect	suppressed; also recorded: suppression	able to reduce	lower decrease	affected	suppressed	significantly inhibited	suppressed	suppresses	reduced inflammation	reduces inflammation	No anti-IL-33 mediated reduction	no anti-IL-33 mediated reduction	reduction in blood eosinophils was a consistent pharmacodynamic effect	–
dupilumab: human anti-IL-4R antibody; HCVR/LCVR SEQ ID NOs: 27 and 28, heavy/light chain SEQ ID NOs: 29 and 30 [reference compound]	–	–	–	–	able to reduce	–	–	–	significantly inhibited	–	–	–	–	–	–	–	also suppressed
